Biological target: Protein kinase C alpha type (Homo sapiens) (UniProt P17252)
Assay: Effect on diacylglycerol induced (DAG) PKC activation at 1-10 uM
Format: functional

- Activity: 40%
Structure (SMILES): O=C(O)CCCCCCC/C=C/CCCCCCCCOc1cc(C2(C(F)(F)F)N=N2)ccc1I

From ChEMBL document CHEMBL1145770, “Efficient synthesis of 3-trifluoromethylphenyldiazirinyl oleic acid derivatives and their biological activity for protein kinase C” (Bioorg Med Chem Lett, 2003)
